# Test results as given in paper PMC9781117, “New 5-Aryl-1,3,4-Thiadiazole-Based Anticancer Agents: Design, Synthesis, In Vitro Biological Evaluation and In Vivo Radioactive Tracing Studies” (Pharmaceuticals, 2022).
# Assays:
# [1] = test system: HepG2 human hepatocellular carcinoma cells; assay: MTT cytotoxicity assay, HepG2; format: cell-based; conditions: for IC50 HepG2 / IC50: MTT, 48 h, means ± SD of three independent experiments; for IC50: Homo sapiens
# Procedure: (§1) The in vitro cytotoxicity of the synthesized 1,3,4-thiadiazole derivatives against breast adenocarcinoma cells (MCF-7) and human hepatocellular carcinoma (HepG2) cell lines were evaluated by the MTT assay, using 5-Fluorouracil (5-FU) as a positive control.
# (§2) Human hepatocellular carcinoma (HepG2) cells and breast adenocarcinoma (MCF7) cells were purchased from the American Type Culture Collection (ATCC, USA). Under 37 °C with 5% CO2 in a humid incubator, cells were propagated using RPMI supplemented with 10% fetal bovine serum (FBS) and 1% v/v penicillin-streptomycin.
# (§3) According to Tim Mosmann’s approach, an MTT assay was performed to assess the antiproliferative properties of the compounds. In short, HepG2 or MCF7 cells (0.5 × 105) were grown in flat-bottom 96-well microplates in 180 μL/well RPMI media supplemented with 10% fetal bovine serum, 2μmol/mL L-glutamine, 250 ng/mL fungizone, and 100 units/mL penicillin-streptomycin solutions at 37 °C in a CO2 incubator. Following incubation, 180 μL/well of the new serum-free medium was added to each well after the old media had been withdrawn. After that, cells were exposed to 20 μL of various concentrations of the compounds (50–0.75 μg/mL) and were incubated for 48 h at 37 °C in a humidified 5% CO2 environment. The MTT solution (20 µL/well) was added and incubated for a further 4 h. The plate was agitated at room temperature while acidified isopropanol (160 μL/well) was added to dissolve the formazan crystals. The absorbance at 570 nm was then determined photometrically using the microplate ELISA reader (FLUOstar Omega, BMG, Labtech, Germany). Graph-Pad PRISM version 6 was used to determine the IC50 for each compound.
# [2] = test system: MCF-7 breast adenocarcinoma cells; assay: MTT cytotoxicity assay, MCF-7; format: cell-based, human; conditions: for fold increase in activity relative to parent analogue: MCF-7, 4d vs 4c, 5b, 5c, 5d vs 5a; for IC50 MCF-7 / IC50: MTT, 48 h, means ± SD of three independent experiments; for IC50: Homo sapiens, MCF7
# Procedure: as §1, §2, §3
# [3] = test system: Bax/Bcl-2 ratio in HepG2 cells; assay: ELISA Bax/Bcl-2 ratio, HepG2; format: cell-based, human; conditions: HepG2, IC50, 48 h, compared to control and 5-FU treated cells
# Text: (§4) The overexpression of antiapoptotic proteins, such as Bcl-2, and the underexpression of proapoptotic proteins, such as Bax, are two common ways that the apoptotic pathway is suppressed in cancer. […] Therefore, a rise in Bax expression and a decrease in Bcl-2 can trigger the apoptotic process and eradicate cancer cells. […] This in turn activates the intrinsic pathway of apoptosis; thus, we next examined their effect on caspase 9 levels. Caspases (cysteine aspartyl-specific proteases), a class of cysteine proteins that cleave target proteins, play a role in executing apoptosis. […] Moreover, we evaluated the effect of the two compounds on the vascular endothelial growth factor VEGF expression. VEGF is one of the pro-angiogenic proteins; upon binding to VEGF receptors in the endothelial cells, it activates phosphorylation, causing increased angiogenesis and resulting in abnormal vasculature in the tumor tissue.
# (§5) The protein levels of Bax, Bcl2, caspase 9, and VGEF were estimated using an ELISA assay. […] Cells from each group were scraped off and washed with PBS and then cell pellets were collected from each flask. […] The supernatants were then used for ELISA assays in accordance with the manufacturer’s instructions for the ELISA kits (Sunlong Biotech, China), and absorbance and calculations were carried out using an ELISA reader (FLUOstar Omega, BMG, Labtech, Germany).
# caspase 9 in HepG2 cells = assay: ELISA caspase 9 level, HepG2; format: cell-based, human; conditions: HepG2, IC50, 48 h
# Text: as §4, §5
# [4] = test system: normal mammalian Vero cells; assay: Cytotoxicity against normal Vero cells; format: cell-based; conditions: Chlorocebus sabaeus
# HepG2 cells [5] = assay: AO/EB fluorescent stain, apoptotic and necrotic cells, HepG2; format: cell-based, human; conditions: HepG2, IC50 concentration, 48 h, vs untreated control cells
# Procedure: Morphologically, there are three different modes of cell death: apoptosis, autophagy, and necrosis (types I, II, and III, respectively).
# Fluorescence labeling with acridine orange/ethidium bromide (AO/EB) was used to determine the ratio between apoptosis and necrosis to evaluate the mode of cell death. HepG2 and MCF-7 cells were seeded in six-well plates with DMEM media supplemented with 10% FBS and allowed to settle overnight at 37 °C with 5% CO2 in a humidified incubator. […] 5-FU was used as a positive standard for both cell lines. After incubation, cells were collected by trypsinization and stained using a dye solution of AO and EB in PBS (1:1) for 20 min. The cells were examined using fluorescence microscopy. Each sample had at least 500 counted cells, and the percentage of apoptotic or necrotic cells was determined by […] the number of apoptotic or necrotic cells by the total number of cells counted by 100. The experiment was performed three times in triplicate.
# VEGF in HepG2 cells = assay: ELISA VEGF level, HepG2; format: cell-based, human; conditions: HepG2, IC50, 48 h, compared to control and 5-FU treated cells
# Text: as §4, §5
# HepG2 cells [6] = assay: Annexin V-FITC/PI flow cytometric apoptosis analysis, HepG2; format: cell-based, human; conditions: HepG2, IC50 concentration, 48 h
# Text: Propidium iodide (PI) and annexin-V-FITC were used in a flow cytometric investigation on HepG2 and MCF-7 cells to better understand the manner of cell death caused by 4e and 4i, respectively. […] Apoptosis evasion is one of the hallmarks of cancer progression because the loss of apoptosis control prolongs cancer cell survival and allows for the accumulation of mutations that can promote angiogenesis and cell proliferation, disrupt differentiation, and increase invasiveness throughout tumor progression, thus one of the key purposes of apoptosis is to prevent cancer.
# The apoptotic activity of compounds 4e and 4i was measured using the annexin V fluorescein isothiocyanate (FITC)/propidium iodide (PI) apoptosis detection kit (BioVision, USA, Catalog #: K101-25) following the manufacturer’s instructions. […] Cells were collected by trypsinization, washed twice using PBS and then 1 × 10^5 cells were resuspended in PBS and stained for 15 min at room temperature in the dark with 5 µL Annexin V-FITC and 5 µL PI in 1x binding buffer. Annexin V-FITC binding was analyzed by a BD FACS Calibur flow cytometry (Ex = 488 nm; Em = 530 nm) using a FITC signal detector (FL1) and PI staining by the phycoerythrin emission signal detector (FL2).
# HepG2 cells [7] = assay: Cell cycle analysis by flow cytometry (PI), HepG2; format: cell-based, human; conditions: HepG2, IC50 concentration, 48 h, vs control
# Procedure: The cell cycle is made up of several intricately linked processes that enable the cell to develop and multiply. In cancer, the genetic and epigenetic abnormalities in the cell cycle-related genes result in an unchecked proliferation of mutated cells and alteration of cell cycle progression. For further investigation of the inhibitory effects of 4e and 4i compounds on the proliferation of HepG2 and MCF-7 cells, respectively, we examined the cell cycle distribution and DNA content after 48 h of the treatment. […] Consequently, the arrest in the G2/M phase mediates apoptosis via a mitochondrial apoptotic pathway.
# Immediately after incubation, trypsinization was used to collect the cells, which were then washed twice with ice-cold PBS before being fixed in 70% (v/v) ethanol at […], re-suspended with 0.1 mg/mL RNase, stained with […] propidium iodide (PI), and incubated for 1 h. The DNA contents of the cells were then analyzed by flow cytometry using an FL2 (λex/em 493/636 nm) signal detector (Abcam, UK, ab139418).
# [8] = test system: breast cancer MCF-7 cells; set-up: method as in PMID 22261027; conditions: cited from earlier work
Molecule,IC50 HepG2 [1] [µg/mL],IC50 MCF-7 [2] [µg/mL],IC50 ([1]; HepG2) [µg/mL],IC50 [2] [µg/mL],other results
"4-((4-((5-(4-Chlorophenyl)-1,3,4-Thiadiazol-2-yl)Imino)-4,5-Dihydrothiazol-2-yl)Amino)Phenol [Compound 5d]",14.12 ± 0.01,6.12 ± 0.51,–,–,fold increase in activity relative to parent analogue [2]: 2- to 4 fold
"4-((5-(4-Chlorophenyl)-1,3,4-Thiadiazol-2-yl)Imino)-N-(4-Ethylphenyl)-4,5-Dihydrothiazol-2-Amine [Compound 5c]",11.25 ± 0.44,5.72 ± 0.17,–,–,fold increase in activity relative to parent analogue [2]: 2- to 4 fold
"4-((5-(4-Chlorophenyl)-1,3,4-Thiadiazol-2-yl)Imino)-N-(4-Tolyl)-4,5-Dihydrothiazol-2-Amine [Compound 5b]",8.81 ± 0.64,12.64 ± 0.47,–,–,fold increase in activity relative to parent analogue [2]: 2- to 4 fold
"4-((5-(4-Chlorophenyl)-1,3,4-Thiadiazol-2-yl)Imino)-N-Phenyl-4,5-Dihydrothiazol-2-Amine [Compound 5a]",26.12 ± 2.02,24.79 ± 2.30,–,–,–
"O=C(C[n+]1ccccc1)Nc1nnc(-c2ccc(Cl)cc2)s1.[Cl-] [Compound 3, 1-(2-((5-(4-Chlorophenyl)-1,3,4-Thiadiazol-2-yl)Amino)-2-Oxoethyl)Pyridinium Chloride]",–,–,13 ± 0.11,7.56 ± 1.2,–
"CN1CCN(CC(=O)Nc2nnc(-c3ccc(Cl)cc3)s2)CC1 [Compound 4a, N-(5-(4-Chlorophenyl)-1,3,4-Thiadiazol-2-yl)-2-(4-Methylpiperazin-1-yl)Acetamide]",–,–,26.3 ± 5.76,51.56 ± 0.48,melting point: 168 to 170 °C
"CCN1CCN(CC(=O)Nc2nnc(-c3ccc(Cl)cc3)s2)CC1 [Compound 4b, N-(5-(4-Chlorophenyl)-1,3,4-Thiadiazol-2-yl)-2-(4-Ethylpiperazin-1-yl)Acetamide]",–,–,3.55 ± 0.05,25.2 ± 1.3,–
"O=C(CN1CCN(c2ccccc2)CC1)Nc1nnc(-c2ccc(Cl)cc2)s1 [Compound 4c, N-(5-(4-Chlorophenyl)-1,3,4-Thiadiazol-2-yl)-2-(4-Phenylpiperazin-1-yl)Acetamide]",–,–,27.9 ± 0.93,49.4 ± 3.5,–
"Cc1ccc(N2CCN(CC(=O)Nc3nnc(-c4ccc(Cl)cc4)s3)CC2)cc1 [Compound 4d, N-(5-(4-Chlorophenyl)-1,3,4-Thiadiazol-2-yl)-2-(4-(4-Tolyl)Piperazin-1-yl)Acetamide]",–,–,44.9 ± 1.54,21.8 ± 0.43,fold increase in activity relative to parent analogue [2]: > 2 fold; melting point: 222 to 224 °C
"CCOc1ccccc1N1CCN(CC(=O)Nc2nnc(-c3ccc(Cl)cc3)s2)CC1 [Compound 4e, N-(5-(4-Chlorophenyl)-1,3,4-Thiadiazol-2-yl)-2-(4-(2-Ethoxyphenyl)Piperazin-1-yl)Acetamide]",–,–,3.13 ± 0.2,5.36 ± 0.36,"Bax/Bcl-2 ratio [3]: significant increase; caspase 9 level (caspase 9 in HepG2 cells): significantly enhanced; IC50 [4]: 154 ± 32.2 µg/mL; fold increase in efficacy relative to parent analogue ([1]; HepG2, 4b vs 4a, 4e vs 4f): 12 fold; SI Values HepG2 ([1]; selectivity index, HepG2 over normal Vero cells): 49.20; apoptosis and necrosis (AO/EB stain) (HepG2 cells [5]): significantly enhanced apoptosis and necrosis; VEGF level (VEGF in HepG2 cells): significantly suppressed; main mode of cell death (annexin-V/PI) (HepG2 cells [6]): apoptosis; total cell death (annexin-V/PI) (HepG2 cells [6]; vs untreated cells): induced significant total cell death; cell cycle arrest (HepG2 cells [7]): significantly arrested HepG2 cells in the S phase; SI Values MCF-7 ([2]; selectivity index, MCF-7 over normal Vero cells): 28.79"
"CCOc1ccc(N2CCN(CC(=O)Nc3nnc(-c4ccc(Cl)cc4)s3)CC2)cc1 [Compound 4f, N-(5-(4-Chlorophenyl)-1,3,4-Thiadiazol-2-yl)-2-(4-(4-Ethoxyphenyl)Piperazin-1-yl)Acetamide]",–,–,38.1 ± 0.14,18.4 ± 0.85,melting point: 225 to 227 °C
"O=C(CN1CCN(c2ccc(F)cc2)CC1)Nc1nnc(-c2ccc(Cl)cc2)s1 [Compound 4g, N-(5-(4-Chlorophenyl)-1,3,4-Thiadiazol-2-yl)-2-(4-(4-Fluorophenyl)Piperazin-1-yl)Acetamide]",–,–,13.9 ± 0.59,10.1 ± 1.2,–
"O=C(CN1CCN(C(=O)c2ccco2)CC1)Nc1nnc(-c2ccc(Cl)cc2)s1 [Compound 4h, N-(5-(4-Chlorophenyl)-1,3,4-Thiadiazol-2-yl)-2-(4-(Furan-2-Carbonyl)Piperazin-1-yl)Acetamide]",–,–,8.35 ± 0.15,3.21 ± 0.3,–
"O=c1[nH]cc(F)c(=O)[nH]1 [Compound 5-FU, 5-Fluorouracil, reference compound]",–,–,8.4 ± 1.2,6.8 ± 0.9,–
COc1ccc(/C=C/C(=O)Nc2nnc(-c3ccc(OC)cc3)s2)cc1 [II],–,–,–,–,IC50 MCF-7 growth inhibition [8]: 0.28 µg/mL; cell cycle effect in MCF-7 cells [8]: cell cycle arrest at the G2/M phase
"N-(4-Bromophenyl)-4-((5-(4-Chlorophenyl)-1,3,4-Thiadiazol-2-yl)Imino)-4,5-Dihydrothiazol-2-Amine [Compound 5e]",25.77 ± 0.64,3.77 ± 0.13,–,–,–
